Results on 2 compounds are retold here after US20240300949A1, “NOVEL CRYSTALLINE FORM OF 1-(8-BROMOPYRIDO[2,3-E][1,2,4]TRIAZOLO[4,3-A]PYRAZIN-4-YL)-N-METHYLAZETIDIN-3-AMINE HEMISUCCINATE” (JW PHARMACEUTICAL CORPORATION, priority 2021, published 2024).

The nature of series [1]: solid-state stability on drying in vacuum oven at 60° C. (XRPD, FIG. 8). The class given is physicochemical. The text has this: Form F is a channel hydrate and generally channel hydrates/solvates are not very stable since the solvent molecules easily can move in and out of the channels and causes collapse of the crystal lattice. In the case of form F the water molecules are placed in the same molecular plane as the succinate molecules which stabilize the hydrate and makes form F particularly useful for use in a solid pharmaceutical product, such as in a tablet. Furthermore, form F can be dried under moderate drying conditions such as in a vacuum oven at 60° C. […] Also form F has been found suitable for large scale drying.
FIG. 8: XRPD's of Form F stored in vacuum at 60° for different periods of time. At each time point of a quick XRPD (9 min) and a normal XRPD (1 hour) were recorded
XRPD patterns were collected with a PANalytical X'pert Empyrean diffractometer using an incident Cu Kα radiation and operating at 45 kV and 40 mA. The XRPD patterns were collected in the 2 theta range from 3 to 60 degrees with a step size of 0.013°, counting time of 198.645s and in transmission geometry. 25 repetitions were done and summarized. In the incident beam path, an parabolic shaped beam Cu W/Si (hybrid MPD) monochromator together with a 10 mm fixed mask, fixed anti-scatter slit ⅛° and fixed divergence slits of 1/16° were placed to line focus the Cu Kα X-rays through the sample and onto the detector. […]

The nature of series [2]: solid-state stability on micronization. It is filed as physicochemical.
The target in another series is histamine 4 receptor (Homo sapiens, UniProt Q9H3N8). As to conditions: background statement, refers to U.S. Pat. No. 9,586,959; cited from earlier work.
Chain of histamine 4 receptor (Q9H3N8 whole entry): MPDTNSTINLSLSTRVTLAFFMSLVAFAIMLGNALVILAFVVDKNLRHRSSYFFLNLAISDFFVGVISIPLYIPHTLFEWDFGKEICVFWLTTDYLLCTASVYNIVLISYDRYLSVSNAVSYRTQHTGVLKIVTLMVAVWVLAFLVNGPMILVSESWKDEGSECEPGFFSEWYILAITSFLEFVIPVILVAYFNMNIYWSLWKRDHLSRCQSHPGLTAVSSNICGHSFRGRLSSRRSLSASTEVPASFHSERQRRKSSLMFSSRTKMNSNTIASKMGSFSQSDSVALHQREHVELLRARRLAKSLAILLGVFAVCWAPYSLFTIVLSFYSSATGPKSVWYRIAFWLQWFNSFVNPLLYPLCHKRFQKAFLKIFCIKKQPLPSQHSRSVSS
Series [3] deals with inflammatory cells such as mast cells and eosinophils. The note with it: background statement, refers to U.S. Pat. No. 9,586,959; cited from earlier work.

“1-(8-bromopyrido[2,3-e][1,2,4]triazolo[4,3-a]pyrazin-4-yl)-N-methylazetidin-3-amine hemisuccinate monohydrate [form F]”: the “crystal lattice stability on drying” value in series [1] is on record as “without collapsing the crystal lattice”. Moreover, the “stability of crystalline form on micronization” value in series [2] is recorded as “tolerates micronization without undergoing amorphization”.
With `CNC1CN(c2nc3ncc(Br)cc3n3cnnc23)C1` [1-(8-bromopyrido[2,3-e][1,2,4]triazolo[4,3-a]pyrazin-4-yl)-N-methylazetidin-3-amine], the “histamine 4 receptor inhibitory effect” value at histamine 4 receptor was “strong”. Besides, the “effect against histamine induced infiltration of inflammatory cells such as mast cells and eosinophils” value in series [3] is given as “suppressive effects”.
